Source: PubChem BioAssay (NCI)
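The compound was tested at five concentrations on cells cultured in 96-well plates, with a 48-hour exposure period. GI50: concentration for 50% inhibition of growth. Definition used: TGI = concentration required for complete inhibition of growth.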

Tests used:
Assay in all cases: DTP human tumour cell line panel, 48 h
[1] = test system: U251 CNS
[2] = test system: NCI/ADR-RES ovarian
[3] = test system: TK-10 renal
[4] = test system: HCT-15 colon
[5] = test system: UO-31 renal
[6] = test system: NCI-H23 lung
[7] = test system: SNB-19 CNS
[8] = test system: SF-268 CNS
[9] = test system: BT-549 breast
[10] = test system: CCRF-CEM leukemia
[11] = test system: RXF 393 renal
[12] = test system: KM12 colon
[13] = test system: RPMI-8226 leukemia
[14] = test system: NCI-H460 lung
[15] = test system: HCT-116 colon
[16] = test system: HT29 colon
[17] = test system: NCI-H522 lung
[18] = test system: HOP-62 NSCLC
[19] = test system: LOX IMVI melanoma
[20] = test system: UACC-62 melanoma
[21] = test system: MDA-MB-435
[22] = test system: SF-295 CNS
[23] = test system: HL-60(TB) leukemia
[24] = test system: SW-620 colon
[25] = test system: OVCAR-3 ovarian
[26] = test system: SK-MEL-2 melanoma
[27] = test system: CAKI-1 renal
[28] = test system: MALME-3M melanoma
[29] = test system: MDA-MB-231 breast
[30] = test system: IGROV1 ovarian
[31] = test system: 786-0 renal
[32] = test system: EKVX NSCLC
[33] = test system: UACC-257 melanoma
[34] = test system: T-47D breast
[35] = test system: HOP-92 NSCLC
[36] = test system: K-562 leukemia
[37] = test system: NCI-H226 lung
[38] = test system: OVCAR-8 ovarian
[39] = test system: DU-145 prostate
[40] = test system: SN12C renal
[41] = test system: SF-539 CNS
[42] = test system: COLO 205 colon
[43] = test system: SR leukemia
[44] = test system: A549 NSCLC
[45] = test system: MOLT-4 leukemia
[46] = test system: OVCAR-4 ovarian
[47] = test system: OVCAR-5 ovarian
[48] = test system: SK-MEL-5 melanoma
[49] = test system: A498 renal
[50] = test system: PC-3 prostate
[51] = test system: HS 578T breast
[52] = test system: SK-OV-3 ovarian
[53] = test system: MCF7 breast
[54] = test system: SK-MEL-28 melanoma
[55] = test system: M14 melanoma
[56] = test system: ACHN renal

COc1ccc(C2=C(c3ccc(OC)c(OC)c3)C(=O)OC2)cc1
GI50 [1]: < 0.01 µM | TGI [1]: > 59.6 µM | GI50 [2]: < 0.01 µM | TGI [2]: 1.12 µM | TGI [3]: 16.5 µM | GI50 [4]: < 0.01 µM | TGI [4]: 28.6 µM | GI50 [5]: 0.116 µM | TGI [5]: > 85.9 µM | GI50 [6]: 0.023 µM | TGI [6]: > 100 µM | GI50 [7]: 0.263 µM | TGI [7]: > 100 µM | GI50 [8]: 0.106 µM | TGI [8]: > 91.7 µM | GI50 [9]: 3.55 µM | TGI [9]: > 100 µM | GI50 [10]: 0.206 µM | TGI [10]: 0.826 µM | GI50 [11]: 0.0792 µM | TGI [11]: > 100 µM | TGI [12]: 3.34 µM | GI50 [13]: 0.0497 µM | TGI [13]: 0.329 µM | TGI [14]: > 100 µM | GI50 [15]: < 0.01 µM | TGI [15]: > 100 µM | GI50 [16]: < 0.01 µM | TGI [16]: > 100 µM | GI50 [17]: < 0.0406 µM | GI50 [18]: < 0.01 µM | GI50 [19]: < 0.01 µM | TGI [19]: > 39.1 µM | GI50 [20]: < 0.01 µM | TGI [20]: 13.2 µM | GI50 [21]: < 0.0463 µM | GI50 [22]: < 0.0496 µM | TGI [23]: 1.51 µM | TGI [24]: > 100 µM | GI50 [25]: 0.177 µM | TGI [25]: 0.389 µM | TGI [26]: > 100 µM | TGI [27]: 4.89 µM | TGI [28]: > 81 µM | GI50 [29]: 0.682 µM | GI50 [30]: 0.0768 µM | TGI [30]: > 62.8 µM | GI50 [31]: < 0.01 µM | GI50 [32]: 1.95 µM | TGI [32]: > 100 µM | GI50 [33]: > 47.4 µM | TGI [33]: > 100 µM | GI50 [34]: 1.66 µM | TGI [34]: > 91.8 µM | GI50 [35]: 3.48 µM | TGI [35]: 32.6 µM | GI50 [36]: < 0.01 µM | GI50 [37]: 0.0169 µM | TGI [37]: 2.92 µM | GI50 [38]: 0.0451 µM | TGI [38]: > 100 µM | GI50 [39]: 0.185 µM | TGI [39]: > 100 µM | GI50 [40]: 0.123 µM | TGI [40]: > 82.1 µM | TGI [41]: > 24.2 µM | GI50 [42]: < 0.0238 µM | TGI [42]: > 68.1 µM | GI50 [43]: < 0.01 µM | TGI [43]: 0.0192 µM | GI50 [44]: 0.133 µM | TGI [44]: > 100 µM | GI50 [45]: < 0.0208 µM | GI50 [46]: > 58.4 µM | TGI [46]: > 100 µM | GI50 [47]: 0.545 µM | TGI [47]: > 100 µM | GI50 [48]: < 0.05 µM | TGI [48]: 2.57 µM | GI50 [49]: 0.0803 µM | TGI [49]: 42.3 µM | GI50 [50]: < 0.0301 µM | TGI [50]: > 100 µM | GI50 [51]: 0.255 µM | TGI [51]: 0.792 µM | TGI [52]: > 100 µM | TGI [53]: > 48.8 µM | TGI [54]: > 100 µM | GI50 [55]: < 0.01 µM | TGI [55]: > 36.4 µM | GI50 [56]: < 0.0135 µM | TGI [56]: > 100 µM
